What all share (format): functional
Assay [1] concerns Acinetobacter baumannii. Description: Antimicrobial activity against Acinetobacter baumannii isolate Ab11 overexpressing beta-lactamase OXA-51 gene mediated by novel insertion sequence ISAba9.
Assay [2] deals with Acinetobacter baumannii. Description: Antimicrobial activity against Acinetobacter baumannii isolate Ab150 overexpressing beta-lactamase OXA-51 gene mediated by novel insertion sequence ISAba9.
Assay [3] has as its system Acinetobacter baumannii. Description: Antimicrobial activity against Acinetobacter baumannii isolate Ab63 overexpressing beta-lactamase OXA-51 gene mediated by novel insertion sequence ISAba9.
Assay [4] concerns Acinetobacter baumannii. Description: Antimicrobial activity against Acinetobacter baumannii isolate Ab153 overexpressing beta-lactamase OXA-51 gene mediated by novel insertion sequence ISAba9.
The subject of assay [5] is Acinetobacter baumannii. Description: Antimicrobial activity against Acinetobacter baumannii isolate Ab30 overexpressing beta-lactamase OXA-51 gene mediated by novel insertion sequence ISAba9.
Assay [6] relates to Acinetobacter baumannii. Description: Antimicrobial activity against Acinetobacter baumannii isolate Ab108 overexpressing beta-lactamase OXA-51 gene mediated by novel insertion sequence ISAba9.
The subject of assay [7] is Acinetobacter baumannii. Description: Antimicrobial activity against Acinetobacter baumannii isolate Ab114 overexpressing beta-lactamase OXA-51 gene mediated by novel insertion sequence ISAba9.
The subject of assay [8] is Acinetobacter baumannii. Description: Antimicrobial activity against Acinetobacter baumannii isolate Ab23 overexpressing beta-lactamase OXA-51 gene mediated by novel insertion sequence ISAba9.
In assay [9] the test system is Acinetobacter baumannii. Description: Antimicrobial activity against Acinetobacter baumannii isolate Ab12 overexpressing beta-lactamase OXA-51 gene mediated by novel insertion sequence ISAba9.
For assay [10], the system named is Acinetobacter baumannii. Description: Antimicrobial activity against Acinetobacter baumannii isolate Ab185 overexpressing beta-lactamase OXA-51 gene mediated by novel insertion sequence ISAba9.
Assay [11] deals with Acinetobacter baumannii. Description: Antimicrobial activity against Acinetobacter baumannii isolate Ab3 overexpressing beta-lactamase OXA-51 gene mediated by novel insertion sequence ISAba9.
Assay [12] concerns Acinetobacter baumannii. Description: Antimicrobial activity against Acinetobacter baumannii isolate Ab91 overexpressing beta-lactamase OXA-51 gene mediated by novel insertion sequence ISAba9.
Assay [13] deals with Acinetobacter baumannii. Description: Antimicrobial activity against Acinetobacter baumannii isolate Ab5 overexpressing beta-lactamase OXA-51 gene mediated by novel insertion sequence ISAba9.
Assay [14] concerns Acinetobacter baumannii. Description: Antimicrobial activity against Acinetobacter baumannii isolate Ab58 overexpressing beta-lactamase OXA-51 gene mediated by novel insertion sequence ISAba9.
Assay [15] deals with Acinetobacter baumannii. Description: Antimicrobial activity against Acinetobacter baumannii isolate Ab33 overexpressing beta-lactamase OXA-51 gene mediated by novel insertion sequence ISAba9.
Assay [16] has as its system Acinetobacter baumannii. Description: Antimicrobial activity against Acinetobacter baumannii isolate Ab168 overexpressing beta-lactamase OXA-51 gene mediated by novel insertion sequence ISAba9.
Assay [17] relates to Acinetobacter baumannii. Description: Antimicrobial activity against Acinetobacter baumannii isolate Ab181 overexpressing beta-lactamase OXA-51 gene mediated by novel insertion sequence ISAba9.
In assay [18] the test system is Acinetobacter baumannii. Description: Antimicrobial activity against Acinetobacter baumannii isolate Ab177 overexpressing beta-lactamase OXA-51 gene mediated by novel insertion sequence ISAba9.
Assay [19] concerns Acinetobacter baumannii. Description: Antimicrobial activity against Acinetobacter baumannii isolate Ab2 overexpressing beta-lactamase OXA-51 gene mediated by novel insertion sequence ISAba9.
Assay [20] concerns Acinetobacter baumannii. Description: Antimicrobial activity against Acinetobacter baumannii isolate Ab133 overexpressing beta-lactamase OXA-51 gene mediated by novel insertion sequence ISAba9.

In brackets after ≈: the same amount, converted by molar mass.

For `C[C@@H](O)[C@H]1C(=O)N2C(C(=O)O)=C(SCCNC=N)C[C@H]12` [IMIPENEM ANHYDROUS], the minimal inhibitory concentration (MIC) with Acinetobacter baumannii [1] is 64 µg/mL (≈ 214 µM); in the assay with Acinetobacter baumannii [2], 16 µg/mL (≈ 53.4 µM); against Acinetobacter baumannii [3], 16 µg/mL (≈ 53.4 µM); in the assay with Acinetobacter baumannii [4], 16 µg/mL (≈ 53.4 µM); in the assay with Acinetobacter baumannii [5] it was 64 µg/mL (≈ 214 µM); against Acinetobacter baumannii [6] it was 16 µg/mL (≈ 53.4 µM). Besides, the minimal inhibitory concentration (MIC) turned out to be 16 µg/mL (≈ 53.4 µM) with Acinetobacter baumannii [7]; 64 µg/mL (≈ 214 µM) against Acinetobacter baumannii [8]; 64 µg/mL (≈ 214 µM) in the assay on Acinetobacter baumannii [9]; 24 µg/mL (≈ 80.2 µM) in the assay on Acinetobacter baumannii [10]; 8 µg/mL (≈ 26.7 µM) with Acinetobacter baumannii [11]; 16 µg/mL (≈ 53.4 µM) in the assay with Acinetobacter baumannii [12]. The minimal inhibitory concentration (MIC) against Acinetobacter baumannii [13] was determined as 64 µg/mL (≈ 214 µM); with Acinetobacter baumannii [14], 16 µg/mL (≈ 53.4 µM); against Acinetobacter baumannii [15] it was 64 µg/mL (≈ 214 µM); against Acinetobacter baumannii [16], 12 µg/mL (≈ 40.1 µM); in the assay with Acinetobacter baumannii [17] it was 32 µg/mL (≈ 107 µM); with Acinetobacter baumannii [18], 8 µg/mL (≈ 26.7 µM). In addition, the minimal inhibitory concentration (MIC) came out at 4 µg/mL (≈ 13.4 µM) against Acinetobacter baumannii [19] and 8 µg/mL (≈ 26.7 µM) with Acinetobacter baumannii [20].

Take `C[C@@H](O)[C@H]1C(=O)N2C(C(=O)O)=C(S[C@@H]3CN[C@H](C(=O)N(C)C)C3)[C@H](C)[C@H]12` [MEROPENEM]: the MIC with Acinetobacter baumannii [1] was found to be 64 µg/mL (≈ 167 µM); in the assay on Acinetobacter baumannii [2], 16 µg/mL (≈ 41.7 µM); against Acinetobacter baumannii [3] it was 16 µg/mL (≈ 41.7 µM); in the assay with Acinetobacter baumannii [4] it was 16 µg/mL (≈ 41.7 µM); against Acinetobacter baumannii [5] it was 64 µg/mL (≈ 167 µM); with Acinetobacter baumannii [6] it was 16 µg/mL (≈ 41.7 µM). The minimal inhibitory concentration (MIC) with Acinetobacter baumannii [7] turned out to be 16 µg/mL (≈ 41.7 µM); with Acinetobacter baumannii [8], 64 µg/mL (≈ 167 µM); in the assay with Acinetobacter baumannii [9], 64 µg/mL (≈ 167 µM); with Acinetobacter baumannii [10], 24 µg/mL (≈ 62.6 µM); in the assay with Acinetobacter baumannii [11], 8 µg/mL (≈ 20.9 µM); against Acinetobacter baumannii [12] it was 16 µg/mL (≈ 41.7 µM). Besides, the minimum inhibitory concentration (MIC) in the assay on Acinetobacter baumannii [13] amounted to 64 µg/mL (≈ 167 µM); with Acinetobacter baumannii [14] it was 16 µg/mL (≈ 41.7 µM); against Acinetobacter baumannii [15] it was 64 µg/mL (≈ 167 µM); in the assay with Acinetobacter baumannii [16], 12 µg/mL (≈ 31.3 µM); against Acinetobacter baumannii [17], 32 µg/mL (≈ 83.4 µM); with Acinetobacter baumannii [18], 8 µg/mL (≈ 20.9 µM). In addition, the MIC amounted to 4 µg/mL (≈ 10.4 µM) against Acinetobacter baumannii [19] and 8 µg/mL (≈ 20.9 µM) in the assay with Acinetobacter baumannii [20].

Usually MIC stands for the lowest concentration found to suppress growth.
